Test results from US7109243B2 (IRM LLC, priority 2003, dated 2006).

Assays:
[1] = target: Cathepsin S (Homo sapiens, UniProt P25774); experiment: Cathepsin S inhibition assay (fluorogenic peptide substrate); assay type: biochemical; details: Table II, compounds of Formula I; read-out: Ki Cat. S
Experimental: “Inhibition constant”, Ki, is the dissociation constant of the enzyme-inhibitor complex, or the reciprocal of the binding affinity of the inhibitor to the enzyme. […] The inhibited rates are then fit by nonlinear regression to the following equation: […]
The assumption being made for the classical inhibition described above is that the free inhibitor concentration is equal to the total inhibitor concentration.
Kinetic measurements are performed in a total reaction volume of 30 μl in 384-well microtiter plates. […] The reactions are initiated by adding the substrate, acetyl-histidine-proline-valine-lysine-amino carbamoyl coumarin, to a final concentration of 50 μM. The rate of substrate hydrolysis is measured by monitoring the increase in fluorescence at an excitation wavelength of 380 nm and an emission wavelength of 450 nm that results from cleavage of the aniline bond in the substrate by the enzyme.

[2] = target: T1, Cathepsin K (Homo sapiens, UniProt P43235); experiment: Cathepsin K inhibition assay (fluorogenic peptide substrate); selectivity ratio vs cathepsin S; assay type: biochemical; details: ratio of cathepsin K inhibition constant to cathepsin S inhibition constant; Table II
T1 sequence (P43235 115-329): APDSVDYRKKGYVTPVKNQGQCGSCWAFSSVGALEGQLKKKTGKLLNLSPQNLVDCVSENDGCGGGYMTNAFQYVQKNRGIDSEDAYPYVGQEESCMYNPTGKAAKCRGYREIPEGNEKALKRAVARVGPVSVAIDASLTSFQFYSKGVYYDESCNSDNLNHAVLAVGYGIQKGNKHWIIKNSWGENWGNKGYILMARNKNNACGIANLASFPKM
Experimental: The optimal substrate for cathepsin K, acetyl-lysine-histidine-proline-lysine-amino carbamoyl coumarin, was identified from screening a combinatorial library of fluorogenic peptide substrates (Harris, J. L., B. J. Backes, et al., Proc Natl Acad Sci USA 2000, 97(14), 7754-9). Kinetic measurements are performed in a total reaction volume of 30 μl in 384-well microtiter plates. […] The reactions are initiated by adding the substrate, acetyl-lysine-histidine-proline-lysine-amino carbamoyl coumarin, to a final concentration of 40 μM. The rate of substrate hydrolysis is measured by monitoring the increase in fluorescence at an excitation wavelength of 380 nm and an emission wavelength of 450 nm that results from cleavage of the aniline bond in the substrate by the enzyme. The apparent inhibition constants for the compounds are determined from the enzyme progress curves ([…]. Elrod, et al., Anal Biochem 2000, 286(1), 45-50) and are then used to calculate the inhibition constants for competitive inhibitors. Selectivity for cathepsin S in the presence of cathepsin isozymes was determined by the ratio of the cathepsin isozyme inhibition constant of a compound of the present invention to the cathepsin S inhibition constant of the same compound.

Cathepsin S, sequence (P25774 115-331, species assumed): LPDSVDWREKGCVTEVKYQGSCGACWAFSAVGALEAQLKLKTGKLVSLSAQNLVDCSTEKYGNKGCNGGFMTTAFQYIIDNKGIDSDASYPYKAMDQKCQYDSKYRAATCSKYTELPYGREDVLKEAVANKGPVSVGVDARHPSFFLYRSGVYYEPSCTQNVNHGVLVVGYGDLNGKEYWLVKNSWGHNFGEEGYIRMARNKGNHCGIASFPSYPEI

Compound	Ki [1]	Selectivity for Cat. S over Cat. K [2]
COc1ccc(NCCNC(=O)[C@H](CCC2CCCCC2)NC(=O)c2ccc(-c3cccc(C(F)(F)F)c3)o2)cc1 [Compound 136, (S)-5-(3-Trifluoromethyl-phenyl)-furan-2-carboxylic acid {3-cyclohexyl-1-[2-(4-methoxy-phenylamino)-ethylcarbamoyl]-propyl}-amide]	< 1000 nM	++ (++, >100)
COc1ccc(NCCNC(=O)[C@H](CC2CCCCC2)NC(=O)c2ccccc2F)cc1 [Compound 145, (S)-N-{2-Cyclohexyl-1-[2-(4-methoxy-phenylamino)-ethylcarbamoyl]-ethyl}-2-fluoro-benzamide]	< 100 nM	+++ (+++, >1000)
COc1ccc(CC(=O)NC(CC2CCCCC2)C(=O)NCCNc2ccc(OC(F)(F)F)cc2)cc1 (centres unmarked) [Compound 17, 3-Cyclohexyl-2-[2-(4-methoxy-phenyl)-acetylamino]-N-[2-(4-trifluoromethoxy-phenylamino)-ethyl]-propionamide]	< 100 nM	++ (++, >100)
COc1ccc(NCCNC(=O)[C@H](CC2CCOCC2)NC(=O)c2ccc(-c3cccc(C(F)(F)F)c3)o2)cc1 [Compound 5, N-((S)-1-(2-(4-methoxyphenylamino)ethylcarbamoyl)-2-(tetrahydro-2H-pyran-4-yl)ethyl)-5-(3-(trifluoromethyl)phenyl)furan-2-carboxamide]	< 1000 nM	+ (+, >10)
COc1cc(OC)nc(Oc2cccc(C(=O)N[C@@H](CC3CCCCC3)C(=O)NCCNc3ccc(OC(F)(F)F)cc3)c2)n1 [Compound 73, N-(S)-{2-cyclohexyl-1-[2-(4-trifluoromethoxy-phenylamino)-ethylcarbamoyl]-ethyl}-3-(4,6-dimethoxy-pyrimidin-2-yloxy)-benzamide]	< 100 nM	++ (++, >100)
O=C(Cc1ccsc1)N[C@@H](CC1CCCCC1)C(=O)NCCNc1ccc(F)cc1 [Compound 77, 3-Cyclohexyl-N-[2-(4-fluoro-phenylamino)-ethyl]-2-(S)-(2-thiophen-3-yl-acetylamino)-propionamide]	< 100 nM	++ (++, >100)
O=C(N[C@@H](CC1CCCCC1)C(=O)NCCNc1ccc(OC(F)(F)F)cc1)c1ccc(Cn2cnc3ccccc32)cc1 [Compound 43, 4-Benzoimidazol-1-ylmethyl-N-{2-cyclohexyl-1-(S)-[2-(4-trifluoromethoxy-phenylamino)-ethylcarbamoyl]-ethyl}-benzamide]	< 100 nM	+ (+, >10)
COc1ccc(NCCNC(=O)[C@H](CC2CCCCC2)NC(=O)c2cccc(Cl)c2)cc1 [Compound 118, (S)-3-Chloro-N-{2-cyclohexyl-1-[2-(4-methoxy-phenylamino)-ethylcarbamoyl]-ethyl}-benzamide]	< 100 nM	++ (++, >100)
COc1ccc(NCCNC(=O)[C@H](CCC2CCCCC2)NC(=O)c2ccc(-n3cncn3)cc2)cc1 [Compound 143, (S)-N-{3-Cyclohexyl-1-[2-(4-methoxy-phenylamino)-ethylcarbamoyl]-propyl}-4-[1,2,4]triazol-1-yl-benzamide]	< 1000 nM	++ (++, >100)
(S)-3-Bromo-N-{1-[2-(4-methoxy-phenylamino)-ethylcarbamoyl]-2-phenyl-ethyl}-4-methyl-benzamide [Compound 24]		+ (+, >10)

Continued, values first:

Ki [1]	Selectivity for Cat. S over Cat. K [2]	Compound
< 1000 nM	++ (++, >100)	COc1ccc(NCCNC(=O)[C@H](CCc2ccccc2)NC(=O)c2cccc(C)c2)cc1 [Compound 206, (S)-N-{1-[2-(4-Methoxy-phenylamino)-ethylcarbamoyl]-3-phenyl-propyl}-3-methyl-benzamide]
< 100 nM	+++ (+++, >1000)	COc1ccc(NCCNC(=O)[C@H](CC2CCCCC2)NC(=O)c2cccc(-c3ccc(Cl)cc3)c2)cc1 [Compound 175, (S)-4′-Chloro-biphenyl-3-carboxylic acid {2-cyclohexyl-1-[2-(4-methoxy-phenylamino)-ethylcarbamoyl]-ethyl}-amide]
< 1000 nM	++ (++, >100)	COc1ccc(NCCNC(=O)[C@H](Cc2ccc(-c3cc(OC)ccc3OC)cc2)NC(=O)c2cccc(C)c2)cc1 [Compound 285, (S)-N-{2-(2′,5′-Dimethoxy-biphenyl-4-yl)-1-[2-(4-methoxy-phenylamino)-ethylcarbamoyl]-ethyl}-3-methyl-benzamide]
< 100 nM	+ (+, >10)	CCCc1ccc(C(=O)N[C@@H](CC2CCCCC2)C(=O)NCCNc2ccc(OC)cc2)cc1 [Compound 151, (S)-N-{2-Cyclohexyl-1-[2-(4-methoxy-phenylamino)-ethylcarbamoyl]-ethyl}-4-propyl-benzamide]
< 100 nM	++ (++, >100)	CS(=O)(=O)c1ccc(C(=O)N[C@@H](CC2CCCCC2)C(=O)NCCNc2ccc(F)cc2)s1 [Compound 293, 5-Methanesulfonyl-thiophene-2-carboxylic acid (S)-{2-cyclohexyl-1-[2-(4-fluoro-phenylamino)-ethylcarbamoyl]-ethyl}-amide]
< 100 nM	++ (++, >100)	N#Cc1ccc(C(=O)N[C@@H](CC2CCCCC2)C(=O)NCCNc2ccc(F)cc2)cc1 [Compound 316, 4-Cyano-N-(S)-{2-cyclohexyl-1-[2-(4-fluoro-phenylamino)-ethylcarbamoyl]-ethyl}-benzamide]
< 100 nM	+++ (+++, >1000)	COc1ccc(NCCNC(=O)[C@H](CC2CCCCC2)NC(=O)c2cc(Br)cc(Br)c2)cc1 [Compound 178, (S)-3,5-Dibromo-N-{2-cyclohexyl-1-[2-(4-methoxy-phenylamino)-ethylcarbamoyl]-ethyl}-benzamide]
< 1000 nM	+ (+, >10)	CS(=O)(=O)c1ccc(C(=O)N[C@@H](CC2CCCCC2)C(=O)NCCNc2ccc(F)cc2)cc1 [Compound 313, N-(S)-{2-cyclohexyl-1-[2-(4-fluoro-phenylamino)-ethylcarbamoyl]-ethyl}-4-methanesulfonyl-benzamide]
< 100 nM	++ (++, >100)	Cc1nc(N)sc1C(=O)N[C@@H](CC1CCCCC1)C(=O)NCCNc1ccc(OC(F)(F)F)cc1 [Compound 250, 2-Amino-4-methyl-thiazole-5-carboxylic acid (S)-{2-cyclohexyl-1-[2-(4-trifluoromethoxy-phenylamino)-ethylcarbamoyl]-ethyl}-amide]
< 100 nM	+++ (+++, >1000)	O=C(N[C@@H](CC1CCCCC1)C(=O)NCCNc1ccc(OC(F)(F)F)cc1)c1ccc(-c2cc(C(F)(F)F)ccc2Cl)o1 [Compound 251, (S)-5-(2-Chloro-5-trifluoromethyl-phenyl)-furan-2-carboxylic acid {2-cyclohexyl-1-[2-(4-trifluoromethoxy-phenylamino)-ethylcarbamoyl]-ethyl}-amide]
< 100 nM	+++ (+++, >1000)	COc1ccc(NCCNC(=O)[C@H](CC=Cc2ccccc2)NC(=O)c2cccc(C)c2)cc1 [Compound 208, (S)-N-{1-[2-(4-Methoxy-phenylamino)-ethylcarbamoyl]-4-phenyl-but-3-enyl}-3-methyl-benzamide]
< 100 nM	+ (+, >10)	COc1ccc(NCCNC(=O)[C@H](CC2CCCCC2)NC(=O)c2cc(-c3ccc(OC)cc3)cs2)cc1 [Compound 191, (S)-4-(4-Methoxy-phenyl)-thiophene-2-carboxylic acid {2-cyclohexyl-1-[2-(4-methoxy-phenylamino)-ethylcarbamoyl]-ethyl}-amide]
< 100 nM	+++ (+++, >1000)	COc1ccc(NCCNC(=O)[C@H](CC2CCCCC2)NC(=O)c2cc(F)ccc2C)cc1 [Compound 157, (S)-N-{2-Cyclohexyl-1-[2-(4-methoxy-phenylamino)-ethylcarbamoyl]-ethyl}-5-fluoro-2-methyl-benzamide]
< 100 nM	+++ (+++, >1000)	O=C(N[C@@H](CC1CCCCC1)C(=O)NCCNc1ccc(F)cc1)C(c1ccccc1)c1ccccc1 [Compound 307, 3-Cyclohexyl-2-(S)-diphenylacetylamino-N-[2-(4-fluoro-phenylamino)-ethyl]-propionamide]
